Laboratory results from patent publication US5190922A (priority 1991, dated 1993).
Non-standard residues stand in square brackets, D forms with d. Residues, ends and D or L forms follow the SMILES beside them. *: point of attachment. NHCH2(2-pyridyl) = c1ccc(CN*)nc1; NMeF = CN[C@@H](Cc1ccccc1)C(=O)O; Cha = N[C@@H](CC1CCCCC1)C(=O)O; dCha = N[C@H](CC1CCCCC1)C(=O)O; 4Amb = NCc1ccc(C(=O)O)cc1; X4 = NCCCN(CCc1ccccc1)*; X5 = c1ccc(NN*)cc1; X3 = N=C(N)NCCCN*; X1 = N#CCCN*

These compounds were tested against T1, C5a Receptor (Homo sapiens, UniProt P21730) (assay: Anaphylatoxin receptor binding Ki determination (inhibition of 125I-C5a binding to PMNL membrane fragments)). Settings: not given.
T1 construct: 2.5-25 μg/mL of purified PMNL membrane fragments; from tissue; host or cells: polymorphonuclear leukocyte (PMNL) membrane fragments
T1 sequence (P21730 1-350): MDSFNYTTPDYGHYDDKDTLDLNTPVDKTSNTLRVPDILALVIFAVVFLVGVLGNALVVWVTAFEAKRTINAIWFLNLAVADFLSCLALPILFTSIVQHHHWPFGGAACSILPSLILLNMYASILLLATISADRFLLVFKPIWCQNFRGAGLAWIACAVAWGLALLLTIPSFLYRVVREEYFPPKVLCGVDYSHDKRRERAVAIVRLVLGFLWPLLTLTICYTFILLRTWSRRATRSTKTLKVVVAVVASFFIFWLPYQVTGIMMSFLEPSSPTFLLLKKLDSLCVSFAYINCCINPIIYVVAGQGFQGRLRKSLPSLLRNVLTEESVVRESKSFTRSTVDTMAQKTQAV
Description: Specific inhibition of C5 a binding activity of representative compounds of the present invention was measured using 0.03-1 nM ^125 I-C5 a with 2.5-25 μg/mL of purified PMNL membrane fragments (Borregaard, N.; Heiple, J. M.; Simons, E. R.; and Clark, R. A. J. Cell. Biol. 1983, 97, 52-61.). Free and membrane-bound ligand were separated by filtration.

Compared with `CN[C@@H](Cc1ccccc1)C(=O)N[C@@H](CCCCN)C(=O)N1CCC[C@H]1C(=O)N[C@H](CC1CCCCC1)C(=O)N[C@@H](CC1CCCCC1)C(=O)NNc1ccccc1` [Example 163, (N-Methyl)Phenylalanyl-Lysyl-Prolyl-{(2R)-2-Amino-3-cyclohexylpropanoyl}-{(2S)-2-Amino-3-cyclohexylpropanoyl}-N-(N'-Phenyl)hydrazide] (H-[NMeF]KP[dCha][Cha]-X5), `CN[C@@H](Cc1ccccc1)C(=O)N[C@@H](CCCCN)C(=O)N1CCC[C@H]1C(=O)N[C@H](CC1CCCCC1)C(=O)N[C@@H](Cc1ccccc1)C(=O)NCCCNC(=N)N` [Example 201, (N-Methyl)Phenylalanyl-Lysyl-Prolyl-{(2R)-2-Amino-3-cyclohexylpropanoyl}-Phenylalanyl-N-(3-Guanidinopropyl)amide] (H-[NMeF]KP[dCha]F-X3) is 4.9-fold higher in Ki: 0.14 µM for the first, 0.69 µM for the second.

`CN[C@@H](Cc1ccccc1)C(=O)N[C@@H](CCCCN)C(=O)N1CCC[C@H]1C(=O)N[C@H](CC1CCCCC1)C(=O)N[C@@H](Cc1ccccc1)C(=O)NCc1ccc(C(=O)O)cc1` [Example 177, (N-Methyl)Phenylalanyl-Lysyl-Prolyl-{(2R)-2-Amino-3-cyclohexylpropanoyl}-Phenylalanyl-N-(4-Carboxybenzyl)amide] (H-[NMeF]KP[dCha]F[4Amb]-OH) gave a Ki of 38.7 µM.

Same assay, conditions: 0.03-1 nM 125I-C5a, 2.5-25 μg/mL purified PMNL membrane fragments, filtration; read-out: Ki (In vitro C5a Receptor Binding Potency)

Compared with `CN[C@@H](Cc1ccccc1)C(=O)N[C@@H](CCCCN)C(=O)N1CCC[C@H]1C(=O)N[C@H](CCCNC(=N)N)C(=O)N[C@@H](Cc1ccccc1)C(=O)NCc1ccccn1` [Example 199, (N-Methyl)Phenylalanyl-Lysyl-Prolyl-DArginyl-Phenylalanyl-N-(2-Picolyl)amide] (H-[NMeF]KP[dR]F-{NHCH2(2-pyridyl)}), `N=C(N)NCCC[C@@H](NC[C@H](Cc1ccccc1)NC(=O)[C@@H](CC1CCCCC1)NC(=O)[C@@H]1CCCN1C(=O)[C@H](CCCCN)NC(=O)CCCCc1ccccc1)C(=O)O` [Example 202, {5-Phenylvaleryl}-Lysyl-Prolyl -{(2R)-2-Amino-3-cyclohexylpropanoyl}-Phenylalanyl-.PSI.(CH2 NH)-DArginyl-OH] is 6.2-fold higher in Ki: 8.4 µM for the first, 52 µM for the second.

Compared with `CN[C@@H](Cc1ccccc1)C(=O)N[C@@H](CCCCN)C(=O)N1CCC[C@H]1C(=O)N[C@H](CC1CCCCC1)C(=O)N[C@@H](CC1CCCCC1)C(=O)NCCC#N` [Example 223, (N-Methyl)Phenylalanyl-Lysyl-Prolyl-{(2R)-2-Amino-3-cyclohexylpropanoyl}-{(2S)-2-Amino-3-cyclohexylpropanoyl}-N-(2-Cyanoethyl)amide] (H-[NMeF]KP[dCha][Cha]-X1), `CN[C@@H](Cc1ccccc1)C(=O)N[C@@H](CCCCN)C(=O)N1CCC[C@H]1C(=O)N[C@H](CC1CCCCC1)C(=O)N(CCCN)CCc1ccccc1` [Example 225, (N-Methyl)Phenylalanyl-Lysyl-Prolyl-{(2R)-2-Amino-3-cyclohexylpropanoyl}-N-3-Aminopropyl-N-2-Phenethylamide] (H-[NMeF]KP[dCha]-X4) is 38-fold higher in Ki: 1.2 µM for the first, 46 µM for the second. The first binds more tightly here.
